Source: US9266869B2, “Substituted dialkyl(oxido)-lambda4-sulfanylidene nicotinamide derivatives as kinase inhibitors” (Allergan, Inc., priority 2013, dated 2016)

Key:
VEGF permeability model = assay: VEGF permeability model, intravitreal injection; type: in vivo; conditions: dosed by intravitreal injection
VEGFR2 = VEGFR2 (Homo sapiens (Human), UniProt P35968); assay: VEGFR2 Cellular Assay (VEGF induced intracellular calcium, FLIPR, HUVEC); type: cell-based; conditions: VEGF165 stimulation (10 ng/mL)
Sequence of VEGFR2 (P35968 20-1356): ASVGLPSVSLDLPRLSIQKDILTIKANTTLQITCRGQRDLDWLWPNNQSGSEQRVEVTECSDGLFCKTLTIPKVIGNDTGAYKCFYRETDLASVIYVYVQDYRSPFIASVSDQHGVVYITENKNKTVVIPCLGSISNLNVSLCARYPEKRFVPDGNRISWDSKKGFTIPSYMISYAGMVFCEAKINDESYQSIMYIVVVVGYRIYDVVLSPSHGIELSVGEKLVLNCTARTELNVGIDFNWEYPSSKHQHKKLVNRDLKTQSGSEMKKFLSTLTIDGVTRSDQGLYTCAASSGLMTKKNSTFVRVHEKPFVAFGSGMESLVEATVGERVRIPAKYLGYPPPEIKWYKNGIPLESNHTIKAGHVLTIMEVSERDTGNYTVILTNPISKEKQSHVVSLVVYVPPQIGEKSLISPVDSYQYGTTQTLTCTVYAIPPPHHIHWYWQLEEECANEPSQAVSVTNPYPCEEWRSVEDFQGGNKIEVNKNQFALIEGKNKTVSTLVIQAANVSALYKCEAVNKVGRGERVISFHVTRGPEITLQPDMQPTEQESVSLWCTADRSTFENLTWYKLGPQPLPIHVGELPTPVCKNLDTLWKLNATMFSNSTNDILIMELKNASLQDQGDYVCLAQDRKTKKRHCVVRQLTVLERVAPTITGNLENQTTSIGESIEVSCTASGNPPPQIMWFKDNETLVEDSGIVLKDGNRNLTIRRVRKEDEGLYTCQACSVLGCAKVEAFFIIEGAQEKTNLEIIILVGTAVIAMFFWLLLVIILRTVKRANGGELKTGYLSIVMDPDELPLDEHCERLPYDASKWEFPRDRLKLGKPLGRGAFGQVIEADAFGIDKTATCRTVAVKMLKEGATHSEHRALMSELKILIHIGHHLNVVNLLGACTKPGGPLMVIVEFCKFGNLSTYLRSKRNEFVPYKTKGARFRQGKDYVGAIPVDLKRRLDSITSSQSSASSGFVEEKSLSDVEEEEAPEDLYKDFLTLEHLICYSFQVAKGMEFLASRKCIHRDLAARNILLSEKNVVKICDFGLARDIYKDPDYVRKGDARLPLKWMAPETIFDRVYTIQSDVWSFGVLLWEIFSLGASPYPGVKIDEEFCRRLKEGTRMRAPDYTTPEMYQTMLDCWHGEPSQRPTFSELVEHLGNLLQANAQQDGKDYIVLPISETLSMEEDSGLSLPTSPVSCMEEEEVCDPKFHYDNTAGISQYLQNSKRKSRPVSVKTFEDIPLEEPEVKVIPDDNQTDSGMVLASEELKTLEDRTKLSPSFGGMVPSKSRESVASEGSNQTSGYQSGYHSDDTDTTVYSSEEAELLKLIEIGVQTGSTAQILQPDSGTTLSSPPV
Protocol: (§1) VEGFR2 Cellular Assay Automated FLIPR (Fluorometric Imaging Plate Reader) technology was used to screen for inhibitors of VEGF induced increases in intracellular calcium levels in fluorescent dye loaded endothelial cells. HUVEC (human umbilical vein endothelial cells) (Clonetics) were seeded in 384-well fibronectin coated black-walled plates overnight @ 37° C./5% CO2. Cells were loaded with calcium indicator Fluo-4 for 45 minutes at 37° C. Cells were washed 2 times (Elx405, Biotek Instruments) to remove extracellular dye. For screening, cells were pre-incubated with test agents for 30 minutes, at a single concentration (10 uM) or at concentrations ranging from 0.0001 to 10.0 uM followed by VEGF165 stimulation (10 ng/mL). Changes in fluorescence at 516 nm were measured simultaneously in all 384 wells using a cooled CCD camera. Data were generated by determining max-min fluorescence levels for unstimulated, stimulated, and drug treated samples. IC50 values for test compounds were calculated from % inhibition of VEGF stimulated responses in the absence of inhibitor.

PDGFRβ [1] = target: T1, PDGFRβ (Homo sapiens (Human), UniProt P09619); assay: PDGFRβ Cellular Assay (PDGF-induced intracellular calcium, FLIPR, NHDF-Ad); type: cell-based; conditions: PDGF-BB stimulation (30 ng/mL)
Protocol: as §1, with “Automated” for “VEGFR2 Cellular Assay Automated”, “of PDGF-induced” for “of VEGF induced”, “[…]. NHDF-Ad (Normal Human Dermal Fibroblasts, Adult; Lonza)” for “cells. HUVEC (human umbilical vein endothelial cells) (Clonetics)”, “by PDGF-BB” for “by VEGF165”, “stimulation (30” for “stimulation (10”, “of PDGF-BB” for “of VEGF”
Target sequence in this assay (P09619 33-1106): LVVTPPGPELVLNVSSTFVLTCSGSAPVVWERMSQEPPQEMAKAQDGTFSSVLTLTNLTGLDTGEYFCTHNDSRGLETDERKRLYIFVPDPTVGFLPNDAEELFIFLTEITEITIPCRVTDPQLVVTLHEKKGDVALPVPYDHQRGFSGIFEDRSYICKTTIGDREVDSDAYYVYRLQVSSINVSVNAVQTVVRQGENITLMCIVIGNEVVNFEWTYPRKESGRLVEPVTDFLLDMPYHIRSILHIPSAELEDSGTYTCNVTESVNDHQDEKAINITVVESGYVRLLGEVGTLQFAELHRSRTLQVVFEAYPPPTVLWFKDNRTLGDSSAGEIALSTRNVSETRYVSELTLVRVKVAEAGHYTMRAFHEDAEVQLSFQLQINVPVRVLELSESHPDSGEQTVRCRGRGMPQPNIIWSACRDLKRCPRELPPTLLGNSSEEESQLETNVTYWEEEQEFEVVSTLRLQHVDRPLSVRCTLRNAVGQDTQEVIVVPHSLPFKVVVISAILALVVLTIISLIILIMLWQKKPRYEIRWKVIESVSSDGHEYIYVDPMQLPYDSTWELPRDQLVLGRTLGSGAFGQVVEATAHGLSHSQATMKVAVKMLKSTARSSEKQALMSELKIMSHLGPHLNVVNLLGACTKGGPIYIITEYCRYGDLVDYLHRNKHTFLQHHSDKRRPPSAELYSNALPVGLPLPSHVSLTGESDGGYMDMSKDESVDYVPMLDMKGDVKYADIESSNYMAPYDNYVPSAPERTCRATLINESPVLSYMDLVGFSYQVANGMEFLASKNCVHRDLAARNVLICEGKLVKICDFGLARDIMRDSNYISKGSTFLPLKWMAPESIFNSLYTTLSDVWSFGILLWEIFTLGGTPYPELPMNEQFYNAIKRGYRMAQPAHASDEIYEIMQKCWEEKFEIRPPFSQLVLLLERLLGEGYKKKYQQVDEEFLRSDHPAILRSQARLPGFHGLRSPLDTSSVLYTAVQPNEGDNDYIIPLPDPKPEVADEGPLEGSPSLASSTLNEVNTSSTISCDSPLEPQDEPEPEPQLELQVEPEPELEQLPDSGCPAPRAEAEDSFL

VEGFR2 (KDR) = VEGFR2 (KDR) (Homo sapiens (Human), UniProt P35968); assay: VEGFR2 Kinase Assay; type: biochemical; conditions: purified cytoplasmic domain KDR protein, 2.7 μM ATP; read-out: VEGFR2 Enzyme Assay (IC50 nM)
Sequence of VEGFR2 (KDR) (P35968 786-1356): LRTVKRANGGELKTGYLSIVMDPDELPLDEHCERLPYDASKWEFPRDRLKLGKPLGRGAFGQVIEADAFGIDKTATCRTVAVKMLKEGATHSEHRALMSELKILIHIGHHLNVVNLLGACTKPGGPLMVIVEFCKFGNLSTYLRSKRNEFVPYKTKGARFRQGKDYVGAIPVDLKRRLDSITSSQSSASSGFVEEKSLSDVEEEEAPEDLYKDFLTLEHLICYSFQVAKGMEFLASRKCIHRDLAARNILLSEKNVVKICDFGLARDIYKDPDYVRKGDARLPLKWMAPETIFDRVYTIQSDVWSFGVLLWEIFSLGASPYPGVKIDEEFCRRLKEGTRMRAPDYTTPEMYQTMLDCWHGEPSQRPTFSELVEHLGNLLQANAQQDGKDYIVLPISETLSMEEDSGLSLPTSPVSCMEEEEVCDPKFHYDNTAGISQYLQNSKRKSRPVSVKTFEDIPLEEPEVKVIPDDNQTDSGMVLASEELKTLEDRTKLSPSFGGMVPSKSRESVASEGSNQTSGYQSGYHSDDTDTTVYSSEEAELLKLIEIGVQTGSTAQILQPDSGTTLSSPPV
Protocol: VEGFR2 Kinase Assay Biochemical KDR kinase assays were performed in 96 well microtiter plates that were coated overnight with 75 μg/well of poly-Glu-[…]:1) in 10 mM Phosphate Buffered Saline (PBS), pH 7.4. […] Reactions were carried out in 100 μL reaction volumes containing 2.7 μM ATP in kinase buffer (50 mM Hepes buffer pH 7.4, 20 mM MgCl2, 0.1 mM MnCl2 and 0.2 mM Na3VO4). […] Reactions were initiated by the addition 20 ul per well of kinase buffer containing 200-300 ng purified cytoplasmic domain KDR protein (BPS Bioscience, San Diego, Calif.). Following a 15 minute incubation at 30° C., the reactions were washed 2 mls per well PBS-T. 100 μl of a monoclonal anti-phosphotyrosine antibody-peroxidase conjugate diluted 1:10,000 in PBS-T was added to the wells for 30 minutes. Following a 2 mls per well wash with PBS-Tween-20, 100 μl of 0-Phenylenediamine Dihydrochloride in phosphate-citrate buffer, containing urea hydrogen peroxide, was added to the wells for 7-10 minutes as a colorimetric substrate for the peroxidase. […] IC50 values for compound inhibition were calculated directly from graphs of optical density (arbitrary units) versus compound concentration following subtraction of blank values.

PDGFRβ [2] = target: T1, PDGFRβ; assay: PDGFRβ Kinase Assay; type: biochemical; conditions: purified cytoplasmic domain PDGFR-b protein, 36 μM ATP; read-out: PDGFRβ Enzyme Assay (IC50 nM)
Protocol: Biochemical PDGFRβ kinase assays were performed in 96 well microtiter plates that were coated overnight with 75 μg of poly-Glu-Tyr (4:1) in 10 mM Phosphate Buffered Saline (PBS), pH 7.4.
PBS-T prior to starting the reaction. Reactions were carried out in 100 μL reaction volumes containing 36 μM ATP in kinase buffer (50 mM Hepes buffer pH 7.4, 20 mM MgCl2, 0.1 mM MnCl2 and 0.2 mM Na3VO4). […] Reactions were initiated by the addition 20 ul per well of kinase buffer containing 200-300 ng purified cytoplasmic domain PDGFR-b protein (Millipore). Following a 60 minute incubation at 30° C., the reactions were washed 2 mls per well PBS-T. 100 μl of a monoclonal anti-phosphotyrosine antibody-peroxidase conjugate diluted 1:10,000 in PBS-T was added to the wells for 30 minutes. Following a 2 mls per well wash with PBS-Tween-20, 100 μl of O-Phenylenediamine Dihydrochloride in phosphate-citrate buffer, containing urea hydrogen peroxide, was added to the wells for 7-10 minutes as a colorimetric substrate for the peroxidase. […] IC50 values for compound inhibition were calculated directly from graphs of optical density (arbitrary units) versus compound concentration following subtraction of blank values.
Target sequence in this assay (P09619 554-1106): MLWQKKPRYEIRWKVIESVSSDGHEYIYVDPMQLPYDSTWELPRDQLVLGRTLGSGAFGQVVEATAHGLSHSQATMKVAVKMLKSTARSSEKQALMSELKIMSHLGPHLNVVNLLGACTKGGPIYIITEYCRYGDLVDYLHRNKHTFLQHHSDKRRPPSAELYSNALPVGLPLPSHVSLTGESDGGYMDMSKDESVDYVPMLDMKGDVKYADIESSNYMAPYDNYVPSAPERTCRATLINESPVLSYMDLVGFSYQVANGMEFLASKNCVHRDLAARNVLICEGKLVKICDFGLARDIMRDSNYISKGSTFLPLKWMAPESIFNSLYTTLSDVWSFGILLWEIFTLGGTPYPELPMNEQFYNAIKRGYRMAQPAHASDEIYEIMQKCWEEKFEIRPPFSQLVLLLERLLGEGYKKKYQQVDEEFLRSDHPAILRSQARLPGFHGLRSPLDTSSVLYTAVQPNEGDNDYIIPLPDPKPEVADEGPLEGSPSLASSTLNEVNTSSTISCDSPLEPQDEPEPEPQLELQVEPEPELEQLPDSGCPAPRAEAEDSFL

in vivo efficacy in the VEGF permeability model (VEGF permeability model) | IC50 (VEGFR2) [nM] | IC50 (PDGFRβ [1]) [nM] | IC50 (VEGFR2 (KDR)) [nM] | IC50 (PDGFRβ [2]) [nM] | SMILES
good in vivo efficacy | 1 | 9 | 5 | 14 | COC(=O)CCCCS(C)(=O)=NC(=O)c1cnc(N)c(C#Cc2cccc(NC(=O)c3cccc(OC)c3)c2)c1 (centres unmarked) [Example 30, Methyl 5-(N-{[6-amino-5-({3-[(3-methoxybenzoyl)amino]phenyl}ethynyl)pyridin-3-yl]carbonyl}-S-methylsulfonimidoyl)pentanoate]
 |  | 27 | 8 | 45 | COC(=O)CCCCS(C)(=O)=NC(=O)c1cnc(N)c(C#Cc2cccc(NC(=O)c3cc(C)ccc3F)c2)c1 (centres unmarked) [Example 25, Methyl 5-(N-{[6-amino-5-({3-[(2-fluoro-5-methylbenzoyl)amino]phenyl}ethynyl)pyridin-3-yl]carbonyl}-S-methylsulfonimidoyl)pentanoate]
 | 3 | 66 | 2 | 34 | Cc1ccoc1C(=O)Nc1cccc(C#Cc2cncc(C(=O)N=S3(=O)CCCC3)c2)c1 [Example 3, 5-({3-[(3-Methyl-2-furoyl)amino]phenyl}ethynyl)-N-(1-oxidotetrahydro-1H-λ^4-thien-1-ylidene)nicotinamide]
 | 2 | 15 | 2 | 30 | Cc1ccoc1C(=O)Nc1cccc(C#Cc2cc(C(=O)N=S3(=O)CCCC3)cnc2N)c1 [Example 4, 6-Amino-5-({3-[(3-methyl-2-furoyl)amino]phenyl}ethynyl)-N-(1-oxidotetrahydro-1H-1λ^4-thien-1-ylidene)nicotinamide]
good in vivo efficacy | 1 | 86 | 6 | 27 | COC(=O)CCCC[S@@](C)(=O)=NC(=O)c1cnc(N)c(C#Cc2cccc(NC(=O)c3occc3C)c2)c1 [Example 33, (R)-Methyl 5-(N-{[6-amino-5-({3-[(3-methyl-2-furoyl)amino]phenyl}ethynyl)pyridin-3-yl]carbonyl}-S-methylsulfonimidoyl)pentanoate]
 | 6 | 15 | 4 | 25 | COC(=O)CCCCS(C)(=O)=NC(=O)c1cnc(N)c(C#Cc2cccc(NC(=O)c3ccc(Cl)c(C(F)(F)F)c3)c2)c1 (centres unmarked) [Example 29, Methyl 5-[N-({6-amino-5-[(3-{[4-chloro-3-(trifluoromethyl)benzoyl]amino}phenyl)ethynyl]pyridin-3-yl}carbonyl)-S-methylsulfonimidoyl]pentanoate]

More lines, now with the values behind:

SMILES | in vivo efficacy in the VEGF permeability model (VEGF permeability model) | IC50 (VEGFR2) [nM] | IC50 (PDGFRβ [1]) [nM] | IC50 (VEGFR2 (KDR)) [nM] | IC50 (PDGFRβ [2]) [nM]
COC(=O)CCCC[S@](C)(=O)=NC(=O)c1cnc(N)c(C#Cc2cccc(NC(=O)c3occc3C)c2)c1 [Example 32, (S)-methyl 5-(N-{[6-amino-5-({3-[(3-methyl-2-furoyl)amino]phenyl}ethynyl)pyridin-3-yl]carbonyl}-S-methylsulfonimidoyl)pentanoate] | good in vivo efficacy | 1 | 60 | 3 | 31
COC(=O)CCCCS(C)(=O)=NC(=O)c1cnc(N)c(C#Cc2cccc(C(=O)Nc3cccc(C)c3)c2)c1 (centres unmarked) [Example 34, Methyl 5-[N-({6-amino-5-[(3-{[(3-methylphenyl)amino]carbonyl}phenyl)ethynyl]pyridin-3-yl}carbonyl)-S-methylsulfonimidoyl]pentanoate] | good in vivo efficacy | 2 | 13 | 7 | 15
COC(=O)CCCCS(C)(=O)=NC(=O)c1cnc(N)c(C#Cc2cccc(NC(=O)c3ccc(OC)c(OC)c3)c2)c1 (centres unmarked) [Example 31, Methyl 5-(N-{[6-amino-5-({3-[(3,4-dimethoxybenzoyl)amino]phenyl}ethynyl)pyridin-3-yl]carbonyl}-S-methylsulfonimidoyl)pentanoate] |  | 4 | 13 | 15 | 38
COC(=O)CCCCS(C)(=O)=NC(=O)c1cnc(N)c(C#Cc2cccc(NC(=O)c3occc3C)c2)c1 (centres unmarked) [Example 23, Methyl 5-(N-{[6-amino-5-({3-[(3-methyl-2-furoyl)amino]phenyl}ethynyl)pyridin-3-yl]carbonyl}-S-methylsulfonimidoyl)pentanoate] | good in vivo efficacy | 1 | 31 | 7 | 54
COC(=O)CCCCS(C)(=O)=NC(=O)c1cnc(N)c(C#Cc2cccc(NC(=O)c3cccc(C(F)(F)F)c3)c2)c1 (centres unmarked) [Example 28, Methyl 5-[N-({6-amino-5-[(3-{[3-(trifluoromethyl)benzoyl]amino}phenyl)ethynyl]pyridin-3-yl}carbonyl)-S-methylsulfonimidoyl]pentanoate] |  | 4 | 12 | 4 | 9
COC(=O)CCCCS(C)(=O)=NC(=O)c1cnc(N)c(C#Cc2cccc(C(=O)Nc3cc(C(C)(C)C)on3)c2)c1 (centres unmarked) [Example 36, Methyl 5-[N-({6-amino-5-[(3-{[(5-tert-butylisoxazol-3-yl)amino]carbonyl}phenyl)ethynyl]pyridin-3-yl}carbonyl)-S-methylsulfonimidoyl]pentanoate] |  | 1 | 18 | 10 | 
COC(=O)CCCCS(C)(=O)=NC(=O)c1cnc(N)c(C#Cc2cccc(NC(=O)c3cc(C(F)(F)F)ccc3F)c2)c1 (centres unmarked) [Example 27, Methyl 5-[N-({6-amino-5-[(3-{[2-fluoro-5-(trifluoromethyl)benzoyl]amino}phenyl)ethynyl]pyridin-3-yl}carbonyl)-S-methylsulfonimidoyl]pentanoate] |  | 1 | 19 | 10 | 40
Cc1ccc(F)c(NC(=O)Nc2cccc(C#Cc3cncc(C(=O)N=S(C)(C)=O)c3)c2)c1 [Example 8, N-[Dimethyl(oxido)-λ^4-sulfanylidene]-5-{[3-({[(2-fluoro-5-methylphenyl)amino]carbonyl}amino)phenyl]ethynyl}nicotinamide] |  | 10 | 28 | 3 | 
Cc1ccoc1C(=O)Nc1cccc(C#Cc2cc(C(=O)N=S(C)(C)=O)cnc2N)c1 [Example 1, 6-Amino-N-[dimethyl(oxido)-λ^4-sulfanylidene]-5-({3-[(3-methyl-2-furoyl)amino]phenyl}ethynyl)nicotinamide] |  | 1 | 11 | 6 | 16
